Measured values as given in US10449223B2, “Use of dehydroeburicoic acid from Antrodia camphorata in the treatment or prevention of diabetes and hyperlipidemia” (priority 2016, dated 2019).

Columns and labels:
[1] = test system: STZ-induced diabetic mice; assay: Tissue weight, body weight and food intake in STZ-induced diabetic mice; type: in vivo, C57BL/6J mice; conditions: 28 days
PPARγ = assay: Western blotting: PPARγ in liver and adipose tissue of mice; conditions: STZ-induced diabetic mice, 28 days
Procedure: (§7) The study protocol was performed as previously described.^28 Diabetes was induced by intraperitoneal injection of streptozotocin (Sigma Chemical, St. Louis, Mo., USA) for 5 consecutive days. The dosage of STZ was 55 mg/kg (dissolved in 0.05 M cold sodium citrate buffer, pH 4.5). The normal control mice received only citrate buffer of the same volume.
(§8) During the experiment, all mice were fasted overnight, and blood was collected from the retro-orbital sinus. After dosing for 4 weeks, food was removed from the mice at night, and on the next day, the mice after 12 h of fasting were sacrificed. All of the individual tissues were collected and weighed, and parts of tissues were instantly frozen at −80° C. for later target gene analysis.
(§9) PPARα, PPARγ, and FAS proteins were performed by the liver and white adipose tissue of mice. Skeletal muscle from mice was subjected to GLUT4 expression level analysis, and the total membrane fractions were collected with buffer and determined using a described procedure. The protein contents of GLUT4, phospho-AMPK, and total AMPK were detected by Western blotting and determined as described.

PPARα [2] = assay: Western blotting: PPARα in liver of mice; conditions: STZ-induced diabetic mice, 28 days
Procedure: as §7, §8, §9

GLUT4 [3] = assay: Western blotting: membrane GLUT4 in skeletal muscle of mice; conditions: STZ-induced diabetic mice, 28 days
Procedure: as §7, §8, §9

[4] = test system: STZ-induced diabetic mice; assay: Histology of epididymal WAT and liver tissue in STZ-induced diabetic mice; type: in vivo, C57BL/6J mice; conditions: 28 days
Excerpt: Parts of EWAT and liver tissue specimens were investigated as previously described.^31,32 Microscopic images were taken using a microscope (Olympus BX51, BX51, Olympus, Tokyo, Japan).

SREBP1c = assay: Semiquantitative RT-PCR, liver tissue: SREBP1c mRNA; type: in vivo, C57BL/6J mice; conditions: STZ-induced diabetic mice, 28 days, relative to CON group (so in the source)
Procedure: (§1) Total RNA from liver tissue was isolated with a Trizol Reagent (Molecular Research Center, Inc., Cincinnati, Ohio) according to the manufacturer's directions. The integrity of the extracted total RNA was examined by 2% agarose gel electrophoresis, and the RNA concentration was determined by the ultraviolet (UV) light absorbency at 260 nm and 280 nm (Spectrophotometer U-2800A, Hitachi). Total RNA (1 μg) was reverse transcribed to cDNA in a reaction mixture containing buffer, and 5 μL Moloney murine leukemia virus reverse transcriptase (Epicentre, Madison, Wis., USA). The polymerase chain reaction (PCR) was performed in a final 25 μL containing 1 U Blend Taq-Plus (TOYOBO, Japan), 1 μL of the RT first-strand cDNA product, 10 μM of each forward (F) and reverse (R) primer, 75 mM Tris-HCl (pH 8.3) containing 1 mg/L Tween 20, 2.5 mM dNTP, and 2 mM MgCl2. The products were run on 2% agarose gels and stained with ethidium bromide.

GLUT4 [5] = assay: GLUT4 protein expression in C2C12 myotube cells (Western blot); type: cell-based
Procedure: (§2) C2C12 skeletal myoblasts (ATCC, CRL-1772) were maintained in growth media consisting of Dulbecco's modified Eagle's medium (DMEM) (Gibco BRL) supplemented with 10% fetal bovine serum (FBS) (Hyclone) and 100 U/mL penicillin/100 μg/mL streptomycin (Gibco BRL) and split 1:4 using 0.05% trypsin when 80% confluent. Myoblasts were diluted and placed in a 9 cm dish. Cells were cultured to achieve 80-90% confluency, and growth medium was changed as 2% FBS/DMEM every 24 h for 5-7 days.
(§3) Determination of GLUT4 and phospho-Akt (Ser^473)/Total Akt Proteins in Vitro: Differentiated C2C12 cells were serum starved in DMEM/BSA (2 h at 37° C.) prior to incubation either with test compounds (TT at 1, 5, 10, and 25 μg/mL) or with vehicle (DMSO containing saline, final concentration of DMSO=0.2%) for 30 min or with 100 nM insulin for 25 min.
(§4) Following treatment, cells were washed three times with ice-cold PBS and separated into two portions. A portion of the cells was subsequently lysed in RIPA buffer (50 mM Tris-HCl, pH 8, 150 mM NaCl, 1% NP-40, 0.5% sodium deoxycholate, 0.1% SDS) supplemented with complete protease inhibitor cocktail (Roche) and phosphatase inhibitors and then centrifuged at 20000 g for […].
(§5) Supernatant protein was collected and stored at −20° C. Another portion of cells was homogenized with buffer (250 mmol/L sucrose, 50 mmol/L Tris, and 0.2 mmol/L edetic acid, pH 7.4) at 4° C., as previously described. The homogenates were centrifuged at 9000 g for 10 min (4° C.). The pellet was suspended with 0.5 mL of homogenization buffer and then centrifuged, repeated three times. The three supernatants were collected, mixed, and centrifuged at 190000 g for 60 min (4° C.). The pellet was resuspended with 0.2 mL of homogenization buffer, stored at −20° C., and performed within membrane.
(§6) Protein concentration was determined via BCA assay (Pierce). Equal amounts of protein were then diluted four times in SDS sample buffer and subjected to SDS-PAGE and were detected by Western blotting with antibodies specific for Akt, phosph-Akt Ser^473, and GLUT4. The density blotting was analyzed using Alpha Easy FCsoftware (Alpha Innotech Corp., Randburg, South Africa).

FAS = assay: Western blotting: FAS in liver and adipose tissue of mice; conditions: STZ-induced diabetic mice, 28 days
Procedure: as §7, §8, §9

AMPK = assay: Western blotting: phospho-AMPK (Thr172)/total AMPK in skeletal muscle and liver of mice; conditions: STZ-induced diabetic mice, 28 days
Procedure: as §7, §8, §9

SREBP2 = assay: Semiquantitative RT-PCR, liver tissue: SREBP2 mRNA; type: in vivo, C57BL/6J mice; conditions: STZ-induced diabetic mice; TT oral (10, 20, 40 mg/kg/day groups, dose not given)
Procedure: as §1

PEPCK = assay: Semiquantitative RT-PCR, liver tissue: PEPCK mRNA; type: in vivo, C57BL/6J mice; conditions: STZ-induced diabetic mice, 28 days, relative to CON group (so in the source)
Procedure: as §1

CPT1a = assay: Semiquantitative RT-PCR, liver tissue: CPT1a mRNA; type: in vivo, C57BL/6J mice; conditions: STZ-induced diabetic mice; TT oral (10, 20, 40 mg/kg/day groups, dose not given)
Procedure: as §1

Akt = assay: phospho-Akt (Ser473)/total Akt in C2C12 myotube cells (Western blot); type: cell-based
Procedure: as §2, §3, §4
as §5, with “The pellet was resuspended with 0.2 mL of homogenization buffer, stored at −20° C., and performed within membrane.” left out
as §6

DGAT2 = assay: Semiquantitative RT-PCR, liver tissue: DGAT2 mRNA; type: in vivo, C57BL/6J mice; conditions: STZ-induced diabetic mice, 28 days, relative to CON group (so in the source)
Procedure: as §1

G6 Pase = assay: Semiquantitative RT-PCR, liver tissue: G6 Pase mRNA; type: in vivo, C57BL/6J mice; conditions: STZ-induced diabetic mice, 28 days, relative to CON group (so in the source)
Procedure: as §1

PPARα [6] = assay: Semiquantitative RT-PCR, liver tissue: PPARα mRNA; type: in vivo, C57BL/6J mice; conditions: STZ-induced diabetic mice, 28 days
Procedure: as §1

## C=C(CC[C@@H](C(=O)O)[C@H]1CC[C@@]2(C)C3=CC[C@H]4C(C)(C)[C@@H](O)CC[C@]4(C)C3=CC[C@]12C)C(C)C [TT, dehydroeburicoic acid]
[1]; TT 10 mg/kg/day oral
  Tissue weight: BAT: 0.296 ± 0.012 wt %
  Tissue weight: EWAT: 0.778 ± 0.063 wt %
  Tissue weight: MWAT: 0.562 ± 0.114 wt %
  Tissue weight: RWAT: 0.122 ± 0.029 wt %
  Tissue weight: Visceral fat: 0.900 ± 0.082 wt %
[1]; TT 20 mg/kg/day oral
  Tissue weight: BAT: 0.323 ± 0.026 wt %
  Tissue weight: EWAT: 0.783 ± 0.087 wt %
  Tissue weight: MWAT: 0.709 ± 0.111 wt %
  Tissue weight: RWAT: 0.161 ± 0.031 wt %
  Tissue weight: Visceral fat: 0.944 ± 0.115 wt %
[1]; TT 40 mg/kg/day oral
  Tissue weight: EWAT: 0.715 ± 0.068 wt %
  Tissue weight: MWAT: 0.720 ± 0.114 wt %
  Tissue weight: RWAT: 0.119 ± 0.014 wt %
  Tissue weight: Visceral fat: 0.834 ± 0.082 wt %
PPARγ; TT 10 mg/kg/day oral
  expression levels of PPARγ in adipose tissue: decreased
  expression levels of PPARγ in the liver: decreased
PPARγ; TT 20 mg/kg/day oral
  expression levels of PPARγ in adipose tissue: decreased
  expression levels of PPARγ in the liver: decreased
PPARγ; TT 40 mg/kg/day oral
  expression levels of PPARγ in adipose tissue: decreased
  expression levels of PPARγ in the liver: decreased
PPARα [2]; TT 10 mg/kg/day oral
  expression levels of PPARα in the liver: increased
PPARα [2]; TT 20 mg/kg/day oral
  expression levels of PPARα in the liver: increased
PPARα [2]; TT 40 mg/kg/day oral
  expression levels of PPARα in the liver: increased
GLUT4 [3]; TT 10 mg/kg/day oral
  membrane expression levels of GLUT4 in skeletal muscle vs STZ group: greater
GLUT4 [3]; TT 20 mg/kg/day oral
  membrane expression levels of GLUT4 in skeletal muscle vs STZ group: greater
GLUT4 [3]; TT 40 mg/kg/day oral
  membrane expression levels of GLUT4 in skeletal muscle vs STZ group: greater
[4]; TT 10 mg/kg/day oral
  ballooning of hepatocyte (liver histology): no ballooning phenomenon
[4]; TT 20 mg/kg/day oral
  average area of adipocytes in epididymal WAT: 5379.9±187.2 μm^2
  ballooning of hepatocyte (liver histology): no ballooning phenomenon
[4]; TT 40 mg/kg/day oral
  average area of adipocytes in epididymal WAT: 4910.5±104.9 μm^2
  ballooning of hepatocyte (liver histology): no ballooning phenomenon
SREBP1c; TT 10 mg/kg/day oral
  mRNA levels of SREBP1c in liver: decreased
SREBP1c; TT 20 mg/kg/day oral
  mRNA levels of SREBP1c in liver: decreased
SREBP1c; TT 40 mg/kg/day oral
  mRNA levels of SREBP1c in liver: decreased
GLUT4 [5]; TT 1 μg/mL, 30 min
  protein expressions of GLUT4 vs CON group: higher
GLUT4 [5]; TT 5 μg/mL, 30 min
  protein expressions of GLUT4 vs CON group: higher
GLUT4 [5]; TT 10 μg/mL, 30 min
  protein expressions of GLUT4 vs CON group: higher
GLUT4 [5]; TT 25 μg/mL, 30 min
  protein expressions of GLUT4 vs CON group: higher
FAS; TT 10 mg/kg/day oral
  expression levels of FAS in adipose tissue: decreased
  expression levels of FAS in the liver: decreased
FAS; TT 20 mg/kg/day oral
  expression levels of FAS in adipose tissue: decreased
  expression levels of FAS in the liver: decreased
FAS; TT 40 mg/kg/day oral
  expression levels of FAS in adipose tissue: decreased
  expression levels of FAS in the liver: decreased
AMPK; TT 10 mg/kg/day oral
  expression levels of phospho-AMPK/total AMPK in skeletal muscle: increased
  muscular expression levels of phospho-AMPK/total AMPK compared with the STZ group (second sentence): increased
AMPK; TT 20 mg/kg/day oral
  expression levels of phospho-AMPK/total AMPK in skeletal muscle: increased
  muscular expression levels of phospho-AMPK/total AMPK compared with the STZ group (second sentence): increased
AMPK; TT 40 mg/kg/day oral
  expression levels of phospho-AMPK/total AMPK in skeletal muscle: increased
  muscular expression levels of phospho-AMPK/total AMPK compared with the STZ group (second sentence): increased
SREBP2
  SREBP2 mRNA levels in liver: decreased
PEPCK; TT 10 mg/kg/day oral
  mRNA levels of PEPCK in liver: decreased
PEPCK; TT 20 mg/kg/day oral
  mRNA levels of PEPCK in liver: decreased
PEPCK; TT 40 mg/kg/day oral
  mRNA levels of PEPCK in liver: decreased
CPT1a
  CPT1a mRNA levels in liver: enhanced
Akt; TT 10 μg/mL, 30 min
  levels of phospho-Akt (Ser473)/total Akt proteins vs CON group: higher
Akt; TT 25 μg/mL, 30 min
  levels of phospho-Akt (Ser473)/total Akt proteins vs CON group: higher
DGAT2; TT 10 mg/kg/day oral
  mRNA levels of DGAT2 in liver: decreased
DGAT2; TT 20 mg/kg/day oral
  mRNA levels of DGAT2 in liver: decreased
DGAT2; TT 40 mg/kg/day oral
  mRNA levels of DGAT2 in liver: decreased
G6 Pase; TT 10 mg/kg/day oral
  mRNA levels of G6 Pase in liver: decreased
G6 Pase; TT 20 mg/kg/day oral
  mRNA levels of G6 Pase in liver: decreased
G6 Pase; TT 40 mg/kg/day oral
  mRNA levels of G6 Pase in liver: decreased
PPARα [6]; TT 10 mg/kg/day oral
  mRNA level of PPARα in liver: increased
PPARα [6]; TT 20 mg/kg/day oral
  mRNA level of PPARα in liver: increased
PPARα [6]; TT 40 mg/kg/day oral
  mRNA level of PPARα in liver: increased

## insulin [reference compound]
GLUT4 [5]; 100 nM insulin, 25 min
  protein expressions of GLUT4 vs CON group: higher
Akt; 100 nM insulin, 25 min
  levels of phospho-Akt (Ser473)/total Akt proteins vs CON group: higher
